According to PMC12396409, “Screening and hit evaluation of a microbial metabolite library against the pathogenic Plasmodium falciparum and Toxoplasma gondii parasites” (International Journal for Parasitology: Drugs and Drug …, 2025):
Where two headings read alike, the source gives them in different places. Where a SMILES comes first, the peptide text is derived from it. Bridges are numbered along the chain shown (N, C = ends). The star is where a group is joined. X2 = CCCCCCCCCCCC(O)CC(=O)*

How the values were obtained:
[1] = test system: P. falciparum 3D7 parasites; experiment: P. falciparum growth inhibition assay, 1-cycle (72 h treatment), SYBR DNA staining (library screen at 2 μg/mL and dose-response); format: cell-based, Plasmodium falciparum; conditions: for activity at 2 µg/mL: Plasmodium falciparum, 3D7, 72 h
[2] = test system: T. gondii RH strain (RH-Tub-eYFP) tachyzoites; experiment: microbe, parasite or virus in culture; format: cell-based, Toxoplasma gondii; conditions: 72 h; for percent parasite growth at 2 µg/mL: Toxoplasma gondii
[3] = test system: P. falciparum 3D7 parasites; experiment: P. falciparum growth inhibition assay, 2-cycle (120 h treatment), delayed-death screen and dose-response; format: cell-based, Plasmodium falciparum; conditions: for activity at 2 µg/mL: Plasmodium falciparum, 3D7, 120 h
[4] = P. falciparum, 72 h, parasite screen 2 μg/mL, % growth, replicate 1, read-out: Pf_72h_%Growth_Rep1
[5] = P. falciparum, 72 h, parasite screen 2 μg/mL, % growth, replicate 2, read-out: Pf_72h_%Growth_Rep2
[6] = T. gondii, parasite screen 2 μg/mL, % growth, replicate 1, read-out: Tg_72h_%Growth_Rep1
[7] = T. gondii, parasite screen 2 μg/mL, % growth, replicate 2, read-out: Tg_72h_%Growth_Rep2
[8] = P. falciparum, 120 h, parasite screen 2 μg/mL, % growth, replicate 1, read-out: Pf_120h_%Growth_Rep1
[9] = P. falciparum, 120 h, parasite screen 2 μg/mL, % growth, replicate 2, read-out: Pf_120h_%Growth_Rep2

CS[C@H]1SC[C@H]2C(=O)N(C)[C@@H](C(C)C)C(=O)OC[C@@H](NC(=O)c3cnc4ccccc4n3)C(=O)N[C@@H](C)C(=O)N(C)[C@@H]1C(=O)N(C)[C@@H](C(C)C)C(=O)OC[C@@H](NC(=O)c1cnc3ccccc3n1)C(=O)N[C@@H](C)C(=O)N2C [Quinomycin A]
Pf_72h_%Growth_Rep1 ([1]; P. falciparum, 72 h, parasite screen 2 μg/mL, % growth, replicate 1): 8.36% | Pf_72h_%Growth_Rep2 ([1]; P. falciparum, 72 h, parasite screen 2 μg/mL, % growth, replicate 2): -0.61% | Tg_72h_%Growth_Rep1 ([2]; T. gondii, parasite screen 2 μg/mL, % growth, replicate 1): -0.75% | Tg_72h_%Growth_Rep2 ([2]; T. gondii, parasite screen 2 μg/mL, % growth, replicate 2): -0.09% | Pf_120h_%Growth_Rep1 ([3]; P. falciparum, 120 h, parasite screen 2 μg/mL, % growth, replicate 1): 15.40% | Pf_120h_%Growth_Rep2 ([3]; P. falciparum, 120 h, parasite screen 2 μg/mL, % growth, replicate 2): -11.60%

CC[C@@H]1C[C@H]2CC[C@H](O2)[C@H](C)C(=O)O[C@@H](C)C[C@@H]2CC[C@@H](O2)[C@@H](C)C(=O)O[C@H](CC)C[C@H]2CC[C@H](O2)[C@H](C)C(=O)O[C@@H](C)C[C@@H]2CC[C@@H](O2)[C@@H](C)C(=O)O1 [Dinactin]
activity at 2 µg/mL ([1]; library screen at 2 μg/mL, 72 h, % growth, replicate 1, read-out: Pf_72h_%Growth_Rep1): 3.66% | activity at 2 µg/mL ([1]; library screen at 2 μg/mL, 72 h, % growth, replicate 2, read-out: Pf_72h_%Growth_Rep2): -1.84% | percent parasite growth at 2 µg/mL ([2]; library screen at 2 μg/mL, % growth, replicate 1, read-out: Tg_72h_%Growth_Rep1): 5.15% | percent parasite growth at 2 µg/mL ([2]; library screen at 2 μg/mL, % growth, replicate 2, read-out: Tg_72h_%Growth_Rep2): 2.32% | activity at 2 µg/mL ([3]; library screen at 2 μg/mL, 120 h, % growth, replicate 1, read-out: Pf_120h_%Growth_Rep1): 15.7% | activity at 2 µg/mL ([3]; library screen at 2 μg/mL, 120 h, % growth, replicate 2, read-out: Pf_120h_%Growth_Rep2): 11%

C=C1[C@@H](C)[C@H]2[C@H](Cc3ccccc3)NC(=O)[C@]23[C@H](OC(C)=O)/C=C/[C@](C)(O)C[C@@H](C)C/C=C/[C@H]3[C@@H]1O [Cytochalasin H]
Pf_72h_%Growth_Rep1 ([1]; P. falciparum, 72 h, screen at 2 μg/mL, replicate 1): 6.96% | Pf_72h_%Growth_Rep2 ([1]; P. falciparum, 72 h, screen at 2 μg/mL, replicate 2): 6.37% | Tg_72h_%Growth_Rep1 ([2]; T. gondii, screen at 2 μg/mL, replicate 1): 1.51% | Tg_72h_%Growth_Rep2 ([2]; T. gondii, screen at 2 μg/mL, replicate 2): 2.70% | Pf_120h_%Growth_Rep1 ([3]; P. falciparum, 120 h, screen at 2 μg/mL, replicate 1): 1.94% | Pf_120h_%Growth_Rep2 ([3]; P. falciparum, 120 h, screen at 2 μg/mL, replicate 2): -0.33%

CCCCCCCCCCCC(O)CC(=O)NC(CC(C)C)C(=O)NC(CCC(=O)O)C(=O)NC1C(=O)NC(C(C)CC)C(=O)NC(CC(C)C)C(=O)NC(CO)C(=O)NC(CC(C)C)C(=O)NC(CC(C)C)C(=O)NC(CO)C(=O)NC(C(C)C)C(=O)OC1C (stereo not drawn) [BIA-O1430] (X2-LETILSLLSV; ester 3-C; configuration not given here)
Pf_72h_%Growth_Rep1 ([1]; P. falciparum 3D7, 72 h, parasite screen at 2 μg/mL, % growth, replicate 1): 78.47% | Pf_72h_%Growth_Rep2 ([1]; P. falciparum 3D7, 72 h, parasite screen at 2 μg/mL, % growth, replicate 2): 76.87% | Tg_72h_%Growth_Rep1 ([2]; T. gondii, parasite screen at 2 μg/mL, % growth, replicate 1): 121.77% | Tg_72h_%Growth_Rep2 ([2]; T. gondii, parasite screen at 2 μg/mL, % growth, replicate 2): 92.49% | Pf_120h_%Growth_Rep1 ([3]; P. falciparum 3D7, 120 h, parasite screen at 2 μg/mL, % growth, replicate 1): 85.46% | Pf_120h_%Growth_Rep2 ([3]; P. falciparum 3D7, 120 h, parasite screen at 2 μg/mL, % growth, replicate 2): 72.71%

Enniatin A
Pf_72h_%Growth_Rep1 ([1]; library screen at 2 μg/mL, 72 h, % growth, replicate 1): 2.40% | Pf_72h_%Growth_Rep2 ([1]; library screen at 2 μg/mL, 72 h, % growth, replicate 2): -1.22% | Tg_72h_%Growth_Rep1 ([2]; library screen at 2 μg/mL, % growth, replicate 1): 2.24% | Tg_72h_%Growth_Rep2 ([2]; library screen at 2 μg/mL, % growth, replicate 2): 14.07% | Pf_120h_%Growth_Rep1 ([3]; library screen at 2 μg/mL, 120 h, % growth, replicate 1): 12.21% | Pf_120h_%Growth_Rep2 ([3]; library screen at 2 μg/mL, 120 h, % growth, replicate 2): 16.45%

CC[C@H](C)C(=O)O[C@H]1C[C@H](O)C=C2C=C[C@H](C)[C@H](CC[C@@H](O)C[C@@H](O)CC(=O)O)[C@H]21 [Pravastatin sodium]
activity at 2 µg/mL [1, 4]: 83.8% | activity at 2 µg/mL [1, 5]: 99.3% | percent parasite growth at 2 µg/mL [2, 6]: 92.2% | percent parasite growth at 2 µg/mL [2, 7]: 94.6% | activity at 2 µg/mL [3, 8]: 96.8% | activity at 2 µg/mL [3, 9]: 111%

O=C1C=CC(=O)c2c(O)cccc21 [BIA-J1739]
Pf_72h_%Growth_Rep1 ([1]; P. falciparum 3D7, 72 h, library screen at 2 μg/mL, % growth, replicate 1): 80.59% | Pf_72h_%Growth_Rep2 ([1]; P. falciparum 3D7, 72 h, library screen at 2 μg/mL, % growth, replicate 2): 97.69% | Tg_72h_%Growth_Rep1 ([2]; T. gondii RH, library screen at 2 μg/mL, % growth, replicate 1): 123.29% | Tg_72h_%Growth_Rep2 ([2]; T. gondii RH, library screen at 2 μg/mL, % growth, replicate 2): 97.98% | Pf_120h_%Growth_Rep1 ([3]; P. falciparum 3D7, 120 h, library screen at 2 μg/mL, % growth, replicate 1): 84.54% | Pf_120h_%Growth_Rep2 ([3]; P. falciparum 3D7, 120 h, library screen at 2 μg/mL, % growth, replicate 2): 95.25%

CN(C)c1ncnc2c1ncn2[C@@H]1O[C@H](CO)[C@@H](N)[C@H]1O [Puromycin aminonucleoside]
activity at 2 µg/mL [1, 4]: 78% | activity at 2 µg/mL [1, 5]: 105% | percent parasite growth at 2 µg/mL [2, 6]: -2.04% | percent parasite growth at 2 µg/mL [2, 7]: 0.2% | activity at 2 µg/mL [3, 8]: 69.5% | activity at 2 µg/mL [3, 9]: 57.6%
